Data published in article PMC3328449, “Inhibition of Diacylglycerol–Sensitive TRPC Channels by Synthetic and Natural Steroids” (PLoS ONE, 2012).

Target: T1, mTRPC5 (Mus musculus, UniProt Q9QX29)
T1 construct: expressed in transfected cells
T1 sequence (Q9QX29 1-975): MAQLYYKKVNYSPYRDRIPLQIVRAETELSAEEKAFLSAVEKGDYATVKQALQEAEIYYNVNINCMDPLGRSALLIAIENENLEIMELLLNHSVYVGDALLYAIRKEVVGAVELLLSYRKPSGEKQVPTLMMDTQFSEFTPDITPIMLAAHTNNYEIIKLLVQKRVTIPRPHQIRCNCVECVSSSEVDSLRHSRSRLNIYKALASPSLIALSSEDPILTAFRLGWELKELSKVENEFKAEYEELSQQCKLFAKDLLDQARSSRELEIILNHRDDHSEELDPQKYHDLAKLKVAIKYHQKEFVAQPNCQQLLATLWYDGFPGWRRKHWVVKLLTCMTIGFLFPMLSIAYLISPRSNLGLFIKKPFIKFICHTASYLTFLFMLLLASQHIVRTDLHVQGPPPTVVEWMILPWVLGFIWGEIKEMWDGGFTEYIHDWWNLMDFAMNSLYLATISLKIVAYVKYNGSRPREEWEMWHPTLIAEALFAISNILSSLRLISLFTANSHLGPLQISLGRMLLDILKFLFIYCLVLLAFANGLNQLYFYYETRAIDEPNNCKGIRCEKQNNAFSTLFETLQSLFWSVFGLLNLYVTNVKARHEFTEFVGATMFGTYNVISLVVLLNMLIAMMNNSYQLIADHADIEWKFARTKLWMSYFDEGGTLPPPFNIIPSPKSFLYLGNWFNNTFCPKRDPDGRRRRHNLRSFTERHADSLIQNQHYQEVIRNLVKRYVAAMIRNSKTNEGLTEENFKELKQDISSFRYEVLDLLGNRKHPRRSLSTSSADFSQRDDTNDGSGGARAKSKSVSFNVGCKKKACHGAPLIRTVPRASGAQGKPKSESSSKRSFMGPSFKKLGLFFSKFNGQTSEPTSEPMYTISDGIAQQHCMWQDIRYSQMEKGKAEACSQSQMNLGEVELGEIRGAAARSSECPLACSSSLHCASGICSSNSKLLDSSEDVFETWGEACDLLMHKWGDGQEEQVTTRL
Experiment: Trypsin-induced Ca2+ entry, fluo-4 fluorometric imaging plate reader, TRPC5 HEK-FITR cells
Format: cell-based
Method: Cells were grown at 37°C in a humidified atmosphere (5% or 7% CO2) under standard cell culture conditions. Stable human embryonic kidney (HEK) cell lines expressing recombinant mTRPC4ß (GenBank accession number AAC05178); mTRPC5 (GenBank accession number NM_009428) or hTRPC6 (GenBank accession number AF080394) under the control of a tetracycline-inducible promoter were generated using the Flp-In T-Rex (FITR) system (Invitrogen, Karlsruhe, Germany). […]
Cells grown to an almost confluent monolayer on black poly-D-lysine coated 96-well plates (Greiner, Frickenhausen, Germany) were washed with standard extracellular solution (140 mM NaCl, 1 mM MgCl2, 5.4 mM KCl, 2 mM CaCl2, 10 mM HEPES, 10 mM glucose, pH 7.35) and stained (30 min, room temperature) with dye solution (2 µM fluo-4 AM, 0.02% pluronic F127, 0.1% bovine serum albumin in standard extracellular solution). […] Fluo-4 fluorescence was excited at 488 nm with an argon laser and measured using a fluorometric imaging plate reader (Molecular Devices, Sunnyvale, USA). […]
TRPC4- and TRPC5-mediated Ca^2+ influx was stimulated by application of trypsin that activates endogenous Gq-coupled protease activated receptors in HEK cells. […] Compound effects were then calculated from the area under the curve and normalized to the Ca^2+ influx into trypsin-stimulated, non-compound-treated cells. […]

IC50 (TRPC5 HEK-FITR cells, fluo-4, 200 nM trypsin, read-out: IC50, inhibition of trypsin-induced Ca2+ entry via TRPC5): 11.8 µM
Hill slope n, inhibition of TRPC5-mediated Ca2+ entry (fit to Hill model): 2.5
SMILES: CC(=O)[C@H]1CC[C@H]2[C@@H]3CCC4=CC(=O)CC[C@]4(C)[C@H]3CC[C@]12C [progesterone]
